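GI50 marks 50% less growth. At the TGI there is no net growth.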
Assays:
Test in all cases: inhibition of tumour cell growth, NCI panel, 384-well format
DU-145 prostate = system: DU-145 prostate
COLO 205 colon = system: COLO 205 colon
NCI-H226 lung = system: NCI-H226 lung
OVCAR-4 ovarian = system: OVCAR-4 ovarian
M14 melanoma = system: M14 melanoma
T-47D breast = system: T-47D breast
CCRF-CEM leukemia = system: CCRF-CEM leukemia
HT29 colon = system: HT29 colon
RPMI-8226 leukemia = system: RPMI-8226 leukemia
RXF 393 renal = system: RXF 393 renal
HL-60(TB) leukemia = system: HL-60(TB) leukemia
SK-MEL-28 melanoma = system: SK-MEL-28 melanoma
ACHN renal = system: ACHN renal
NCI-H460 NSCLC = system: NCI-H460 NSCLC
SF-539 CNS = system: SF-539 CNS
UACC-62 melanoma = system: UACC-62 melanoma
TK-10 renal = system: TK-10 renal
OVCAR-3 ovarian = system: OVCAR-3 ovarian
A498 renal = system: A498 renal
HCT-15 colon = system: HCT-15 colon
UO-31 renal = system: UO-31 renal
K-562 leukemia = system: K-562 leukemia
BT-549 breast = system: BT-549 breast
HCT-116 colon = system: HCT-116 colon
KM12 colon = system: KM12 colon
EKVX NSCLC = system: EKVX NSCLC
MDA-MB-231 breast = system: MDA-MB-231 breast
MCF7 breast = system: MCF7 breast
SF-295 CNS = system: SF-295 CNS
HOP-62 NSCLC = system: HOP-62 NSCLC
SR leukemia = system: SR leukemia
OVCAR-8 ovarian = system: OVCAR-8 ovarian
NCI-H23 lung = system: NCI-H23 lung
MDA-MB-468 breast = system: MDA-MB-468 breast
NCI/ADR-RES ovarian = system: NCI/ADR-RES ovarian
CAKI-1 renal = system: CAKI-1 renal
PC-3 prostate = system: PC-3 prostate
HOP-92 NSCLC = system: HOP-92 NSCLC
SW-620 colon = system: SW-620 colon
SK-OV-3 ovarian = system: SK-OV-3 ovarian
U251 glioblastoma = system: U251 glioblastoma
MOLT-4 leukemia = system: MOLT-4 leukemia
LOX IMVI melanoma = system: LOX IMVI melanoma
OVCAR-5 ovarian = system: OVCAR-5 ovarian
SF-268 CNS = system: SF-268 CNS
SNB-19 CNS = system: SNB-19 CNS
A549 NSCLC = system: A549 NSCLC

## NC1(c2ccc(-c3nc4ccn5c(=O)[nH]nc5c4cc3-c3ccccc3)cc2)CCC1
DU-145 prostate
  GI50: 5.78 µM
  TGI: 17.4 µM
COLO 205 colon
  GI50: 712 nM
  TGI: 2650 nM
NCI-H226 lung
  GI50: 2080 nM
  TGI: 7.36 µM
OVCAR-4 ovarian
  GI50: 2790 nM
  TGI: 7.48 µM
M14 melanoma
  GI50: 1440 nM
  TGI: 2770 nM
T-47D breast
  GI50: 27.2 nM
  TGI: 629 nM
CCRF-CEM leukemia
  GI50: 127 nM
  TGI: 1160 nM
HT29 colon
  GI50: 1290 nM
  TGI: 2690 nM
RPMI-8226 leukemia
  GI50: 1480 nM
  TGI: 3.24 µM
RXF 393 renal
  GI50: 863 nM
  TGI: 2230 nM
HL-60(TB) leukemia
  GI50: 1920 nM
  TGI: 3.36 µM
SK-MEL-28 melanoma
  GI50: 1200 nM
  TGI: 2500 nM
ACHN renal
  GI50: 1290 nM
  TGI: 5.45 µM
NCI-H460 NSCLC
  GI50: 463 nM
  TGI: 2860 nM
SF-539 CNS
  GI50: 815 nM
  TGI: 2080 nM
UACC-62 melanoma
  GI50: 1450 nM
  TGI: 5.45 µM
TK-10 renal
  GI50: 1340 nM
  TGI: 3.9 µM
OVCAR-3 ovarian
  GI50: 859 nM
  TGI: 4.78 µM
A498 renal
  GI50: 134 nM
  TGI: 1190 nM
HCT-15 colon
  GI50: 1400 nM
  TGI: 2780 nM
UO-31 renal
  GI50: 2200 nM
  TGI: 6.72 µM
K-562 leukemia
  GI50: 1590 nM
  TGI: 3.03 µM
BT-549 breast
  GI50: 875 nM
  TGI: 2520 nM
HCT-116 colon
  GI50: 1520 nM
  TGI: 2960 nM
KM12 colon
  GI50: 2320 nM
  TGI: 7.07 µM
EKVX NSCLC
  GI50: 1620 nM
  TGI: 5.92 µM
MDA-MB-231 breast
  GI50: 2490 nM
  TGI: 6.52 µM
MCF7 breast
  GI50: 135 nM
  TGI: 1720 nM
SF-295 CNS
  GI50: 1340 nM
  TGI: 2720 nM
HOP-62 NSCLC
  GI50: 2680 nM
  TGI: 7.93 µM
SR leukemia
  GI50: 1140 nM
  TGI: 2360 nM
OVCAR-8 ovarian
  GI50: 1760 nM
  TGI: 3.96 µM
NCI-H23 lung
  GI50: 2490 nM
  TGI: 7.48 µM
MDA-MB-468 breast
  GI50: 48.3 nM
  TGI: 514 nM
NCI/ADR-RES ovarian
  GI50: 3.18 µM
  TGI: 12.1 µM
CAKI-1 renal
  GI50: 883 nM
  TGI: 2600 nM
PC-3 prostate
  GI50: 139 nM
  TGI: 3.21 µM
HOP-92 NSCLC
  GI50: 1160 nM
  TGI: 2660 nM
SW-620 colon
  GI50: 4.69 µM
  TGI: 8.9 µM
SK-OV-3 ovarian
  GI50: 763 nM
  TGI: 2300 nM
U251 glioblastoma
  GI50: 1860 nM
  TGI: 4.53 µM
MOLT-4 leukemia
  GI50: 131 nM
  TGI: 632 nM
LOX IMVI melanoma
  GI50: 1580 nM
  TGI: 2950 nM
OVCAR-5 ovarian
  GI50: 2130 nM
  TGI: 7.16 µM
SF-268 CNS
  GI50: 2730 nM
  TGI: 7.37 µM
SNB-19 CNS
  GI50: 2550 nM
  TGI: 7.45 µM
A549 NSCLC
  GI50: 2050 nM
  TGI: 9.34 µM

From PubChem BioAssay (NCI)
